Patent US8486863B2, “Activators of lateral root formation” (VIB VZW, priority 2006, dated 2013)

What was measured:
[1] = system: Wild-type Arabidopsis thaliana; experiment: Dose-response analysis of lateral root density and root length; assay type: in vivo
Description: FIG. 3: Dose-response analysis of class 1 (upper panel) and class 2 (lower panel) activators. Wild-type Arabidopsis thaliana seeds were germinated under standard conditions on agar plates. After 3 days of germination, seedlings were transferred to agar plates containing compound at different concentrations. Lateral root density was measured 10 days after germination. Bars represent standard errors.
FIG. 4: Dose-response analysis of A2, A11, A12, A14 and NAA. Wild-type Arabidopsis thaliana seeds were germinated under standard conditions on agar plates. After 3 days of germination, seedlings were transferred to agar plates containing compound at different concentrations and 1% DMSO. Plants transferred to agar plates containing 1% DMSO and no compound were used as controls. Lateral root density (left panels) and root length (right panels) were measured 10 days after germination. Bars represent standard errors.
For further phenotypic analysis, all plants were grown on vertically oriented square plates (Greiner Labortechnik, Austria) with solid medium derived from standard MS medium under the same conditions. 3 DAG plants were transferred to medium supplemented with compounds and were left to grow for another 7 days. After this, root length and number of LRs were counted using ImageJ 1.34 freeware.
As a subsequent step, the phenotypic effect of the 16 selected activators was determined in a dose-response analysis in which LR density (number of LRs per cm) was quantified (FIG. 3). Based upon potency and structure, two different classes of activators could be identified.

[2] = system: auxin signaling mutants; experiment: Effect of A12 and NAA on lateral root density and root length of auxin signaling mutants (Table 1); assay type: in vivo, Arabidopsis thaliana; design: Root length: unit not given here; conditions: 3 uM
Source text: (§1) Afb1, Afb2, Afb3 and the triple mutant Tirlafb2afb3 were described by Dhamasiri et al. (2005). Tir1 was described by Ruegger et al., (1998); 1aa28 by Rogg et al., (2001); Tir7-1 by Ruegger et al., (1997); the Cyp79b2b3 double mutant by Ljung et al. (2005); the arf7arf19 double mutant by Fukaki et al., (2005); Aux1 by Bennett et al., (1996); Xbat32 by Nodzon et al., (2004), Axr1-12 by Timpte et al., (1995), Slr1 by Fukaki et al., 2002 and Axr3-1 by Collet et al., (2000) and the mutants were obtained from the publishing authors.
(§2) For phenotypic analysis, all mutants were grown on vertically oriented square plates (Greiner Labortechnik, Austria) with solid medium derived from standard MS medium. The plates were put in a growth chamber under continuous light (110 μE.m2.s1 photosynthetically active radiation, supplied by cool-white fluorescent tungsten tubes; Osram) at 22° C. Three days after germination, the mutant plants were transferred to medium supplemented with compounds and were left to grow for another 7 days. After this, root length and number of lateral roots were counted using ImageJ 1.34 freeware.
DMSO is used as negative control.

[3] = system: auxin signaling mutants; experiment: Effect of activators on lateral root density of auxin signaling mutants (Table 2); assay type: in vivo, Arabidopsis thaliana
Source text: as §1, §2

[4] = tir TM (Tir1afb2afb3 triple mutant)

O=C(O)Cc1cccc2ccccc12 [NAA, 1-naphthylacetic acid, reference compound]
LR density response to increasing compound concentration ([1]; FIG. 4): threshold-like mechanism
compound concentration that increased root density five times compared to controls ([1]; FIG. 4, 10 days after germination): 1.5 µM
Root length ([1]; at the concentration that increased root density five times (20 μM A11, 1.5 μM NAA)): 0.2 times the root length of controls
Root length ([2]; CDKB DN): 0.42
LR density ([2]; Col-0): 52.98
Root length ([2]; Col-0): 1.08
LR density ([2]; Ws): 45.59
Root length ([2]; Ws): 0.87
LR density ([2]; Xbat32): 36.83
Root length ([2]; Xbat32): 1.33
LR density ([2]; afb1-1): 51.36
Root length ([2]; afb1-1): 0.93
LR density ([2]; afb2-1): 51.08
Root length ([2]; afb2-1): 0.87
LR density ([2]; afb3-1): 46.76
Root length ([2]; afb3-1): 0.94
Root length ([2]; arf7arf19 DM (double mutant)): 0.87
Root length ([2]; aux1): 0.93
LR density ([2]; axr1-12): 40.22
Root length ([2]; axr1-12): 1.12
LR density ([2]; axr5-1): 27.56
Root length ([2]; axr5-1): 1.27
LR density ([2]; cyp79b2-3 DM (double mutant)): 37.27
Root length ([2]; cyp79b2-3 DM (double mutant)): 1.43
LR density ([2]; iaa28-1): 48.10
Root length ([2]; iaa28-1): 0.86
LR density ([2]; lax3): 63.09
Root length ([2]; lax3): 1.02
LR density ([2]; msg2-1): 37.22
Root length ([2]; msg2-1): 1.13
LR density ([2]; slr-1): 0.00
Root length ([2]; slr-1): 0.84
LR density ([2]; tir1-1): 57.73
Root length ([2]; tir1-1): 0.99
LR density ([2]; tir7-1): 41.72
Root length ([2]; tir7-1): 0.87
LR density [2, 4]: 47.00
Root length [2, 4]: 0.80
lateral root density ([3]; Afb1-1, 0.1 uM): 13.49 LR/cm
lateral root density ([3]; Afb1-1, 0.3 uM): 8.76 LR/cm
lateral root density ([3]; Afb1-1, 1 uM): 21.43 LR/cm
lateral root density ([3]; Afb1-1, 3 uM): 47.81 LR/cm
lateral root density ([3]; Afb2-1, 0.1 uM): 14.57 LR/cm
lateral root density ([3]; Afb2-1, 0.3 uM): 8.98 LR/cm
lateral root density ([3]; Afb2-1, 1 uM): 28.72 LR/cm
lateral root density ([3]; Afb2-1, 3 uM): 59.72 LR/cm
lateral root density ([3]; Afb3-1, 0.1 uM): 15.27 LR/cm
lateral root density ([3]; Afb3-1, 0.3 uM): 8.93 LR/cm
lateral root density ([3]; Afb3-1, 1 uM): 27.72 LR/cm
lateral root density ([3]; Afb3-1, 3 uM): 55.01 LR/cm
lateral root density ([3]; Arf7Arf19, 0.1 uM): 0.00 LR/cm
lateral root density ([3]; Arf7Arf19, 0.3 uM): 0.00 LR/cm
lateral root density ([3]; Arf7Arf19, 1 uM): 0.17 LR/cm
lateral root density ([3]; Arf7Arf19, 3 uM): 13.18 LR/cm
lateral root density ([3]; Arf16, 0.1 uM): 8.05 LR/cm
lateral root density ([3]; Arf16, 0.3 uM): 6.63 LR/cm
lateral root density ([3]; Arf16, 1 uM): 10.83 LR/cm
lateral root density ([3]; Arf16, 3 uM): 17.17 LR/cm
lateral root density ([3]; Arf17, 0.1 uM): 6.57 LR/cm
lateral root density ([3]; Arf17, 0.3 uM): 10.34 LR/cm
lateral root density ([3]; Arf17, 1 uM): 0.47 LR/cm
lateral root density ([3]; Arf17, 3 uM): 24.68 LR/cm
lateral root density ([3]; Axrt-12, 0.1 uM): 8.04 LR/cm
lateral root density ([3]; Axrt-12, 0.3 uM): 9.25 LR/cm
lateral root density ([3]; Axrt-12, 1 uM): 9.03 LR/cm
lateral root density ([3]; Axrt-12, 3 uM): 27.55 LR/cm
lateral root density ([3]; Cyp79, 0.1 uM): 15.83 LR/cm
lateral root density ([3]; Cyp79, 0.3 uM): 6.85 LR/cm
lateral root density ([3]; Cyp79, 1 uM): 22.20 LR/cm
lateral root density ([3]; Cyp79, 3 uM): 50.78 LR/cm
lateral root density ([3]; Iaa28-1, 0.1 uM): 3.57 LR/cm
lateral root density ([3]; Iaa28-1, 0.3 uM): 7.46 LR/cm
lateral root density ([3]; Iaa28-1, 1 uM): 11.92 LR/cm
lateral root density ([3]; Iaa28-1, 3 uM): 40.09 LR/cm
lateral root density ([3]; Tir1-1, 0.1 uM): 5.14 LR/cm
lateral root density ([3]; Tir1-1, 0.3 uM): 11.34 LR/cm
lateral root density ([3]; Tir1-1, 1 uM): 6.74 LR/cm
lateral root density ([3]; Tir1-1, 3 uM): 18.30 LR/cm
lateral root density ([3]; Tir7-1, 0.1 uM): 15.76 LR/cm
lateral root density ([3]; Tir7-1, 0.3 uM): 5.78 LR/cm
lateral root density ([3]; Tir7-1, 1 uM): 14.79 LR/cm
lateral root density ([3]; Tir7-1, 3 uM): 46.33 LR/cm
lateral root density ([3]; TirTM, 0.1 uM): 8.04 LR/cm
lateral root density ([3]; TirTM, 0.3 uM): 18.89 LR/cm
lateral root density ([3]; TirTM, 1 uM): 15.81 LR/cm
lateral root density ([3]; TirTM, 3 uM): 45.09 LR/cm
lateral root density ([3]; Xbat32, 0.1 uM): 4.27 LR/cm
lateral root density ([3]; Xbat32, 0.3 uM): 9.26 LR/cm
lateral root density ([3]; Xbat32, 1 uM): 12.70 LR/cm
lateral root density ([3]; Xbat32, 3 uM): 33.67 LR/cm
